SMILES strings stand for the structures.

Assay type in all cases: in vivo, SD/IGS rats
Data set [1] deals with rats with constipation induced by low-fiber diet. As to the kind of experiment: Test 1: ameliorating effect on constipation models fed on low-fiber diet. The settings on record: low-fiber diet constipation model rats, oral in 0.5% MC, dosed twice (0 and 8 h). The method, then:
Test 1: Ameliorating Effect on Constipation Models Fed on Low-Fiber Diet
SD/IGS rats (6-wk old; CHARLES RIVER LABORATORIES JAPAN, INC.) in groups, each consisting of two heads per cage, were fed on a diet with a decreased dietary fiber content of 5% for a week in order to induce constipation. The normal group was fed on a standard diet with 15% dietary fiber (MF diet; ORIENTAL YEAST CO., LTD.) On the day before the test, each rat was measured for body weight and thereafter transferred into an individual cage. Grouping was performed on the basis of the body weights measured on the day before the test. The experimental groups of rats with induced constipation were orally administered compound (I) in a volume of 5 mL/kg body weight as dissolved in 0.5% (w/v) methylcellulose (MC), whereas the control vehicle group was orally administered 0.5% MC only. […] Immediately after the first administration, a stool recovery tray was placed under each cage and starting 2 hours after the administration, stools were recovered every two hours until 24 hours after the administration; the appearance of the recovered stools was observed and their weight was measured. To determine their moisture content, the stools were measured for their wet weight, dried for at least 8 hours at 100° C., measured for dry weight, and its proportion (%) to the wet weight was calculated. […]

For data set [2], the system named is rats with loperamide-induced constipation. As to the kind of experiment: Test 2: ameliorating effect on loperamide-induced constipation. The settings on record: loperamide (5 mg/kg p.o.) constipation model rats, oral in 0.5% MC. The protocol:
Test 2: Ameriolating Effect on Loperamide-Induced Constipation
The effects on constipation as induced by loperamide which suppresses the propulsion of the digestive tract's contents and the secretion of intestinal juice were investigated.
SD/IGS rats (6-wk old; CHARLES RIVER LABORATORIES JAPAN, INC.) in groups, each consisting of one head per cage, were kept in a day-and-night reversal room for 11 days. The rats were fasted for about 16 hours and orally administered 0.5% MC suspended loperamide at a dose of 5 mg/5 mL/kg body weight to prepare constipation models. The normal group was orally administered on 0.5% MC only. […] Immediately after the administration of compound (I), 5 g of a standard diet (MF diet; ORIENTAL YEAST CO., LTD.) was applied and thereafter, a stool recovery tray was placed under each cage and starting 2 hours after the administration, stools were recovered every two hours until after 12 hours; the appearance of the recovered stools was observed and their weight was measured. To determine their moisture content, the stools were measured for their wet weight, dried for at least 8 hours at 100° C., measured for dry weight, and its proportion (%) to the wet weight was calculated. […]

Data set [3] is described as follows: Test 3: percentage of compound (I) remaining unaltered in rat's digestive tract. The settings on record: 1 mg/kg oral; for Remaining unaltered, cecum/large intestine (including the contents), relative to dose / Remaining unaltered, small intestine's contents, relative to dose / Remaining unaltered, small intestine, relative to dose / Remaining unaltered, total, relative to dose: average of 4 cases ± S.D. The method, then: Test 3: Percentage of Compound (I) Remaining Unaltered in Rat's Digestive Tract
Seven-week old SD/IGS rats (CHARLES RIVER LABORATORIES JAPAN, INC.; male; fasted) were orally administered compound (I) (1 mg/kg) formulated with an aqueous solution of 0.5% CMC-Na (carboxymethylcellulose sodium salt). One, four and seven hours after the drug administration, the rats were euthanized under anesthetization with ether and their small intestine, cecum, and large intestine were removed. The contents of the small intestine were recovered by infusing the small intestine with 20 mL of physiological saline. After washing the tissue's surface with physiological saline, the tissues and the recovered contents were measured for their weight and homogenized under cooling with ice in the presence of added 4 volumes of purified water. The homogenate was deproteinated in the presence of an added acetonitrile/methanol solution containing an internal standard and, thereafter, the supernatant was analyzed by LC-MS/MS (Applied Biosystems: API3000). Drug-derived ions were detected by selected reaction monitoring based on electrospray ionization in a positive ion mode. From peak areas in the resulting extracted ion chromatogram, drug concentrations in the homogenate were calculated by the internal standard method.
The internal standard here used was compound 11 disclosed in WO2007/136116.

Turning to `COc1cc(C(C)C)c(Cc2ccc(/C=C/C(C)(C)C(=O)NC(C)(C)C(=O)NCCN(C)C)cc2)cc1[C@@H]1O[C@H](CO)[C@@H](O)[C@H](O)[C@H]1O` [Compound (I), (1S)-1,5-anhydro-1-[5-(4-{(1E)-4-[(1-{[2-(dimethylamino)ethyl]amino}-2-methyl-1-oxopropan-2-yl)amino]-3,3-dimethyl-4-oxobut-1-en-1-yl}benzyl)-2-methoxy-4-(propan-2-yl)phenyl]-D-glucitol], the “wet weight of stools” value in data set [1] (stools recovered until 24 hours (FIG. 1)) and in data set [2] (stools recovered until 12 hours (FIG. 3)) was “increased” in each case. For the same molecule, the “moisture content of stools” value in data set [1] (stools recovered until 24 hours (FIG. 2)) and in data set [2] (stools recovered until 12 hours (FIG. 4)) was “increased” each time. In addition, the “dose remaining unaltered in the small intestine and its contents” value in data set [3] (1 hour after drug administration) and in data set [3] (4 hours after drug administration) was “about 75%” in each case. Also, the “Remaining unaltered, cecum/large intestine (including the contents), relative to dose” value was 0.2 ± 0.3 % of dose in data set [3] (1 hr after dosing), 33.1 ± 44.5 % of dose in data set [3] (4 hr after dosing) and 84.2 ± 8.8 % of dose in data set [3] (7 hr after dosing). Besides, the “Remaining unaltered, small intestine's contents, relative to dose” value in data set [3] (1 hr after dosing) is recorded as 70.3 ± 6.7 % of dose; in data set [3] (4 hr after dosing), 69.7 ± 44.9 % of dose; in data set [3] (7 hr after dosing), 1.6 ± 1.2 % of dose. Further, the “Remaining unaltered, small intestine, relative to dose” value in data set [3] (1 hr after dosing) is recorded as 4.9 ± 0.6 % of dose; in data set [3] (4 hr after dosing), 6.4 ± 5.3 % of dose; in data set [3] (7 hr after dosing), 0.7 ± 0.3 % of dose. Also, the “Remaining unaltered, total, relative to dose” value in data set [3] (1 hr after dosing) is 75.4 ± 6.3 % of dose; in data set [3] (4 hr after dosing), 109.2 ± 10.7 % of dose; in data set [3] (7 hr after dosing), 86.5 ± 9.2 % of dose.

For the origin of these results see US10022389B2, “Prophylactic or therapeutic drug for constipation” (TAISHO PHARMACEUTICAL CO., LTD., priority 2013, dated 2018).
